Data as given in ChEMBL document CHEMBL1201862, “PubChem BioAssay data set” (2004).
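Dose response: 5 concentrations. Exposure: 48 h. Format: 96-well plates. Endpoint: linear interpolation; highest concentration if not reached. Here, GI50 denotes the concentration required for 50% inhibition of growth.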 Activity calls are given as the source filed them. Cut-off read from the data, not from the text of the source: active = GI50 up to about 1.1 µM and inactive = higher.

Columns and labels:
Assay in all cases: growth of human tumour cells (NCI), 48 h
[1] = test system: SN12C
[2] = test system: SK-MEL-28
[3] = test system: NCI/ADR-RES
[4] = test system: MDA-MB-435
[5] = test system: A549
[6] = test system: SNB-75
[7] = test system: SNB-19
[8] = test system: K562
[9] = test system: HCT-15
[10] = test system: SF-295
[11] = test system: IGROV-1
[12] = test system: SF-539
[13] = test system: HT-29
[14] = test system: NCI-H460
[15] = test system: HOP-62
[16] = test system: SF-268
[17] = test system: OVCAR-5
[18] = test system: COLO 205
[19] = test system: T47D

Compound	GI50 [1]	GI50 [2]	GI50 [3]	GI50 [4]	GI50 [5]	GI50 [6]	GI50 [7]	GI50 [8]	GI50 [9] [µM]	GI50 [10]	GI50 [11]	GI50 [12]	GI50 [13]	GI50 [14]	GI50 [15]	GI50 [16]	GI50 [17]	GI50 [18]	GI50 [19]
N#CCc1nc(-c2cc3ccc(O)cc3oc2=O)cs1	54.8 µM (inactive)	35.2 µM (inactive)	> 100 µM (inactive)	33.1 µM (inactive)	55 µM (inactive)	57 µM (inactive)	> 100 µM (inactive)	31.5 µM (inactive)	35.9	33.2 µM (inactive)	49.1 µM (inactive)	69.3 µM (inactive)	72.9 µM (inactive)	50 µM (inactive)	> 100 µM (inactive)	83.2 µM (inactive)	> 100 µM (inactive)	> 100 µM (inactive)	36.7 µM (inactive)
NC1C/C(=N\O)c2c(Cl)sc(Cl)c21 (stereo not drawn)	19.1 µM (inactive)	19.3 µM (inactive)	25.6 µM (inactive)	15.6 µM (inactive)	29.3 µM (inactive)	25.2 µM (inactive)	31.3 µM (inactive)	43.2 µM (inactive)	15.6	28.1 µM (inactive)	17 µM (inactive)	8.95 µM (inactive)	23.1 µM (inactive)	20.4 µM (inactive)	21.5 µM (inactive)	29.4 µM (inactive)	21.7 µM (inactive)	25.4 µM (inactive)	18.7 µM (inactive)
CC1OC(OC2C(O)COC(OC3C(C)OC(OC4C(OC(=O)[C@]56CCC(C)(C)C[C@@H]5C5=CCC7[C@@]8(C)C[C@H](O)[C@H](OC9OC(CO)C(O)C(O)C9O)[C@@](C)(CO)[C@@H]8CC[C@@]7(C)[C@]5(C)CC6)OCC(O)C4O)C(O)C3O)C2O)C(O)C(O)C1O (stereo partly drawn)	21.2 µM (inactive)	15 µM (inactive)	21.6 µM (inactive)	23.4 µM (inactive)	20.8 µM (inactive)	20 µM (inactive)	21.8 µM (inactive)	47.9 µM (inactive)	20.9	23.9 µM (inactive)	–	22.2 µM (inactive)	21 µM (inactive)	20.5 µM (inactive)	18.3 µM (inactive)	27.7 µM (inactive)	17.1 µM (inactive)	14.9 µM (inactive)	22 µM (inactive)
CCC1(O)CC2CC(=O)OC2C1O (stereo not drawn)	–	> 100 µM (inactive)	> 100 µM (inactive)	> 100 µM (inactive)	> 100 µM (inactive)	> 100 µM (inactive)	> 100 µM (inactive)	> 100 µM (inactive)	> 100	> 100 µM (inactive)	> 100 µM (inactive)	> 100 µM (inactive)	> 100 µM (inactive)	> 100 µM (inactive)	> 100 µM (inactive)	> 100 µM (inactive)	> 100 µM (inactive)	> 100 µM (inactive)	> 100 µM (inactive)
CCOC(=O)C(C)c1nc2cc(N3CCN(C)CC3)c(F)cc2[nH]c1=O (stereo not drawn)	> 100 µM (inactive)	> 100 µM (inactive)	> 100 µM (inactive)	> 100 µM (inactive)	> 100 µM (inactive)	> 100 µM (inactive)	> 100 µM (inactive)	> 100 µM (inactive)	> 100	> 100 µM (inactive)	> 100 µM (inactive)	> 100 µM (inactive)	> 100 µM (inactive)	> 100 µM (inactive)	> 100 µM (inactive)	> 100 µM (inactive)	> 100 µM (inactive)	> 100 µM (inactive)	> 100 µM (inactive)
